We go through 91 molecules from a melting point compilation (Tetko et al.; mined from patent text by program, amines drawn as free bases though some values may be those of a salt).

As usually defined, the melting point is the temperature, or range, at which the solid turns liquid. Turning to `CCOC(=O)c1c(-c2ccc(O)cc2)nc2ccccn12`, the melting point stood at 220 °C. Then `CS(=O)(=O)c1ccc(Oc2ccc(Cl)c(Cl)c2)nc1`, with 120 to 121 °C. Then `COC[C@H]1C[C@@H](n2cnc3c(N[C@H]4CCN(c5ccc(C(F)(F)F)cn5)C4)ncnc32)[C@@H](O)[C@H]1O`, with 166 to 168 °C; and `CCS(=O)(=O)c1ccc(C=O)cc1`, with 107 to 109 °C. Then `COc1ccc(N2CCN(c3c(C)c(C)c4c(c3C)C(O)(c3ccc(Cl)cc3)C(C)(C)O4)CC2)cc1` (stereo unspecified), with 153 to 155 °C; and `Cc1cc(NC(=O)c2cccc(CCc3cccnc3)c2)ccc1C(C)C`, with 143 to 144 °C. Molecule `Cc1c(C)c(Br)c2c(c1C)C(=O)C(C)(C)O2` registered a melting point of 145 to 146 °C.

Molecule `CN(CCCCCC(=O)NO)C(=O)/C=C/C=C/c1ccccc1` came in with a melting point of 145 to 147 °C. `ONC(=S)CCc1ccc(F)cc1` gave a melting point of 115 to 116 °C. As to `O=C(NS(=O)(=O)NCCc1cccs1)OCc1ccccc1`, the melting point fell in the range of 129 to 131 °C. As for `CC(C)=NOCc1nc2c(N)nc3cccnc3c2n1CCCNC(=O)OC(C)(C)C`, the figure is 148 to 150 °C; as for `CC(=CCO)c1ccc(-c2ccc(Br)cc2)cc1`, 145 to 148 °C; as for `Cn1cccc1-c1ccc2c(c1)C1(CCCCC1)C(=O)N2`, 210 °C. Then `CCC(=O)OCC1OC(n2cnc3c(=O)[nH]c(N)nc32)C(F)C1OC(=O)CC` (stereo unspecified), with 198 to 200 °C; and `COc1cnccc1C(C)=O`, with 36 to 37 °C; and `C#CC1(Oc2ccc(F)cc2[N+](=O)[O-])CCN(C(=O)Oc2ccccc2)CC1`, with 82 to 83 °C. Then `CCOC(Nc1ccccc1)(OCC)c1ccnc(C(=O)c2ccc(Cl)cc2)c1`, with 98 to 99 °C; and `COc1ccc(C2CC=CCC2NC(=O)c2ccc(OCC3CC3)c(OCC3CC3)c2)cc1OC` (stereo unspecified), with 152 to 154 °C. In the case of `COc1ccc(S(=O)(=O)C2(CCCC#Cc3ccc(Cl)cc3)CC(=O)NC2=O)cc1` (stereo unspecified), the melting point was 160 to 162 °C. As to `O=S(=O)(Oc1cccc(O)c1)c1ccc(Cl)c(Cl)c1`, the melting point lay in the range of 107 to 110 °C. As for `CS(=O)(=O)c1c(O)c2cccnc2n(Cc2ccccc2)c1=O`, the figure is 155 °C; as for `O=C(CC[C@H]1CC1(c1ccccc1)c1ccccc1)Oc1ccc([N+](=O)[O-])cc1`, 76 to 77 °C; as for `COC(=O)[C@@H]1[C@H](/C=C/c2ccccc2)N1S(=O)c1ccc(C)cc1` (stereo partly specified), 107 to 109 °C.

In turn, `CC(C)c1cccc(C(C)C)c1NC(=O)CC1c2ccccc2Oc2ccccc21` returned a melting point of 231 to 232 °C. In the case of `COc1nc(Cl)nc(NC(C#N)C#N)n1`, the melting point was 164 to 166 °C. Then `O=c1[nH]c2cc(Cl)ccc2c(O)c1-c1cccc(OCc2ccccc2)c1`, with 293 to 295 °C; and `CS(=O)(=O)c1nc(O)nn1-c1ccccc1`, with 173 to 175 °C. As for `CC(=O)Nc1cc2c3c(c1)c(=O)c(C(=O)O)cn3C(C)CC2` (stereo unspecified), the figure is greater than 310 °C; as for `O=c1[nH]c2ccc(Cl)cc2c(=O)n1CCCN1CC=C(c2ccc(Cl)cc2)CC1`, 197 to 198 °C; as for `OCCC1(CCO)c2ccccc2Oc2ccccc21`, 144 to 145 °C. Then `Cc1c(NC(=O)NC(C)(C)C)c(C)c2c(c1C(C)O)OCC2c1ccc(C(C)C)cc1` (stereo unspecified), with 212 to 214 °C; and `CN(C)C=Nc1nc(OCOC(=O)C(C)(C)C)ncc1F`, with 86 to 88 °C. In the case of `Cc1oc(-c2ccccc2)nc1Cc1cc2cc(/C=C/CO)ccc2o1`, the melting point lay within 156 to 157 °C. As for `O=C(O)Cc1ccc(NC(=O)C(Cn2ccnc2)NS(=O)(=O)c2ccc(Br)cc2)cc1` (racemic), the figure is 131 to 140 °C; as for `Cc1c(-c2ccc(O)cc2)oc2ccccc2c1=O`, 241 to 242 °C; as for `CSC1C(=O)Nc2ccc(Oc3ccccc3Cl)cc21` (stereo unspecified), 120 to 123 °C. Regarding `CC(=O)OC1CCC2(C)C(=CC(=O)C3C2CCC2(C)C(C(C)CCCC(C)(C)C)CCC32)C1` (stereo unspecified), the melting point fell in the range of 183 to 186 °C.

Turning to `Clc1cccc(-c2nnnn2-c2cccnc2)c1Cl`, the melting point was 124 to 126 °C.

Consider `CC1=C(C(=O)O)Cc2ccc(C)cc21`, for which the melting point was in the range of 174 to 182 °C. For the molecule `CCOC(=O)c1cc2cc(OCCCS(C)(=O)=O)cc(N)c2[nH]1`, the melting point was 187 to 188 °C. Molecule `O=C1CCC(N2C(=O)c3ccc(CNC(=O)c4ccc(SC(F)(F)F)cc4)cc3C2=O)C(=O)N1` (stereo unspecified) yielded a melting point of 171 to 173 °C. As for `Cc1ccccc1NC(=O)CN1C[C@@H](C)N(c2ncnc3sccc23)[C@@H](C)C1`, the figure is 174 to 175 °C; as for `Cc1[nH]n(Cc2ccc(C(=O)O)cc2)c2nc(-c3ccncc3)nc(=O)c1-2`, greater than 300 °C. Then `NC(=O)N(O)Cc1ccc(Br)s1`, with 145 to 147 °C.

`Cc1ccc(C)c(OCCC(N)C(C)(C)C(=O)O)c1` (stereo unspecified) displayed a melting point of 86.1 to 86.9 °C.

`CC(C)(C)OC(=O)CNC(=O)c1ccc(N)c(Cl)c1` came in with a melting point of 116 to 117 °C. As for `N#C/C=C1\CCCCC1n1nc(-c2c(-c3ccccc3)nn3ccccc23)ccc1=O` (stereo unspecified), the figure is 70 to 72 °C; as for `CCOC(=O)C1=C(C)NC(c2cnc(C)s2)=NC1c1ccc(F)cc1Cl` (stereo unspecified), 107 to 111 °C. Turning to `Cn1ncc(C(=O)O)c1C(=O)Nc1ccn2nc(-c3ccccc3)nc2c1`, the melting point is greater than 300 °C. `COc1ccc2c(CC(=O)O)c(C(=O)c3cc(C)ccn3)[nH]c2c1` had a melting point of 204 °C. Then `N#Cc1ccc(-c2ccc(-c3ccoc3)cc2)cc1`, with 199 to 203 °C; and `COc1cc2ncc(C#N)c(Nc3cccc(Cl)c3)c2cc1OC`, with 214 to 217 °C; and `COc1ccc(C(C)N(O)C(N)=O)cc1` (stereo unspecified), with 132 to 134 °C. As for `Cn1cc(C(=O)NCc2ccc(Cl)cc2)c(=O)c2cc(CN3CCOCC3)cc(F)c21`, the figure is 187 to 189 °C.

On to `O=C(O)CN1CC(NC(=O)Cc2ccccc2)C1=O` (stereo unspecified), for which the melting point lay in the range of 144 to 145 °C. As for `O=S(=O)(OCC(F)(F)F)c1ccc2ccccc2c1`, the figure is 72.7 °C. As for `NC(=O)CC[C@H](NC(=O)c1ccc(OCc2ccccc2)cc1OCc1ccccc1)C(=O)N1CCN(c2ccccc2)CC1`, the figure is 157 to 158 °C; as for `C=Cc1nc(-c2ccco2)c2ncn(Cc3ccc(OC)cc3)c2n1`, 94 to 95 °C. Then `CC1(C)N=C(c2ccccc2F)c2cc([N+](=O)[O-])ccc2NC1=O`, with 241 °C.

In the case of `CCCNC(=C1Sc2ccccc2C1=O)c1ccccc1`, the melting point is 124 to 125 °C. Then `O=C(O)C(=O)CC(=O)c1cccn1Cc1ccc(Cl)cc1`, with 182 to 184 °C. Then `CC(=O)Nc1c(C(=O)C2CCCCC2)[nH]c2cc(Cl)ccc12`, with 198 °C; and `COc1ccc(/C=C/C(=O)N2CC(CCl)c3c2cc(O)c2ncccc32)cc1O` (stereo unspecified), with 215 to 218 °C. As for `S=C1NCCCN1c1ccccc1`, the figure is 211 to 212 °C; as for `CNC(=O)c1cc(C(=O)O)cc(C(=O)NC)n1`, less than 300 °C; as for `COC=C1CCC(C#N)(c2ccc(OC)c3c2OCCO3)CC1` (stereo unspecified), 112 to 113 °C. In the case of `O[C@H](CCc1cccnc1)COc1ccc(-c2cccc(F)c2)cc1`, the melting point was 61 to 62 °C. Then `CCCCCCCCCCCCCCCCCCN(C)c1ccc([N+](=O)[O-])cc1C(=O)O`, with 108 to 109 °C; and `CN(C)C(=O)Nc1cccc(S(N)(=O)=O)c1`, with 193 to 194 °C; and `O=C(Nc1cccnc1)c1cccc(-c2cccc3oc(Cc4cccc(C(F)(F)F)c4)cc23)c1`, with 127 to 128 °C. As for `CC(C)C(C(=O)O[C@H]1C[C@H](O)C=C2C=C[C@H](C)[C@H](CC[C@@H]3C[C@@H](O)CC(=O)O3)[C@H]21)C(C)C`, the figure is 210 to 211 °C; as for `O=C(OCc1ccccc1)c1ncoc1CCNC(=O)[C@H](O)Cc1ccccc1`, 106 to 108 °C; as for `Clc1nc2cc3c(cc2s1)OCO3`, 131 to 132 °C. As for `COc1ccc(-c2nc3cnncc3[nH]2)c(OC)c1`, the figure is 268 °C. In the case of `O=[N+]([O-])c1cc(Br)ccc1-c1ccccc1F`, the melting point lay within 42 to 45 °C. As for `C=CCOc1ccc(OCC)c2c1S(=O)(=O)N(Cc1ccccc1)C2=O`, the figure is 148 to 149 °C; as for `COC1=C(OC)C(=O)C(CCCCCCCCCO)=C(C)C1=O`, 45 °C. For `N#Cc1ccc(-c2nc(S)[nH]c2-c2ccc(Br)cc2)cc1`, the melting point lay within 307 to 311 °C. Then `CCOC(=O)C(C(=O)CCC(C)C)C1c2nccnc2C(=O)N1c1ccc2ccc(Cl)nc2n1` (stereo unspecified), with 136 °C; and `CCCOc1ccc2nc(NC(=O)OC)sc2c1`, with 178 to 180 °C; and `CC(=O)NCC(=O)Nc1cc(Cl)cc(Nc2ncnc3[nH]cc(C(=O)c4ccccc4)c23)c1`, with greater than 300 °C. In turn, `CC(C)=CCOc1ccc2c(C)cc(=O)oc2c1C(=O)C=Cc1ccccc1` displayed a melting point of 114 to 116 °C.

`COc1ccc(CCN(C)c2cc(C)sc2CO)cc1OC` returned a melting point of 149 °C. As for `COC(=O)CNc1cccc(C(F)(F)F)c1`, the figure is 60 to 63 °C; as for `CCc1cn(C2CC(O)C(CNC(=O)Cc3ccccc3NC(C)=O)O2)c(=O)[nH]c1=O` (stereo unspecified), 266 to 267 °C; as for `CCOC(=O)c1ccc([N+](=O)[O-])cc1C`, 71 to 72 °C. Then `COc1ccc2ccc(N3C(=O)C4=C(SCCO4)C3O)nc2n1` (stereo unspecified), with 222 °C; and `[N-]=[N+]=N[C@H]1C[C@H](C(=O)Nc2ccc(N3CCOCC3=O)cc2)N(C(=O)Nc2ccc(Cl)cc2)C1`, with 145 °C.

For the molecule `CCCN1CC(c2cccc(Cl)c2)=C(c2ccc(S(N)(=O)=O)cc2)C1=O`, the melting point lay within 149 to 150 °C. For `CC(C)(C)OC(=O)N[C@@H](Cc1cc(F)cc(F)c1)[C@H](O)CO`, the melting point is 122 °C. As for `Cc1cc(Cl)c(O)cc1N`, the figure is 144 °C.
